Earlier results in patent US20030073069A1, “Drug rescue by redesign of ADMET/PK properties” (priority 2001, published 2003).
Read-outs that look alike come from different tables or passages of the source.

Legend:
[1] = development for memory enhancement abandoned
[2] = FIG. 8
CYP 3A4 = CYP 3A4 (Homo sapiens, UniProt P08684); conditions: indicates a reactive intermediate formed by CYP 3A4 metabolism
P450 [3] = system: P450
P450 [4] = conditions: induction of a P450

Sequence of CYP 3A4 (P08684 whole entry): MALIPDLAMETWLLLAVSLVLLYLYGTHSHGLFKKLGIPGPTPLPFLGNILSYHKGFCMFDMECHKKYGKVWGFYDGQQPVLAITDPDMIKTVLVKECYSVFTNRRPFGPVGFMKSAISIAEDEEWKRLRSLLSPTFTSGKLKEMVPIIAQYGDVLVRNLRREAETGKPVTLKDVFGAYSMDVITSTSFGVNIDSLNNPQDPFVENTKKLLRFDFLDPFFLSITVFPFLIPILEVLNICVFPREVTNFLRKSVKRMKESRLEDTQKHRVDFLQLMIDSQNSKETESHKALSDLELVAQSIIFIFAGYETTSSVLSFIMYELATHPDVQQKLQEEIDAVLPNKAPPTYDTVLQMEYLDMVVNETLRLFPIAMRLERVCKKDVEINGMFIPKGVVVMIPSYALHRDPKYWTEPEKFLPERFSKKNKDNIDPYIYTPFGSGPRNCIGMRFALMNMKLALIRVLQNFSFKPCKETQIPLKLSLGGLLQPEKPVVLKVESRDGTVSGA

SMILES | No. of currently known drug interactions that involve the compound, Inhibition (P450 [3]; inhibition of a P450) | No. of currently known drug interactions that involve the compound, Induction (P450 [4]) | No. of currently known drug interactions that involve the compound, Inhibition (P450 [3]) | other results
CCCCCNC(=N)N/N=C/c1c[nH]c2ccc(OC)cc12 [tegaserod] |  |  |  | ability to breach the Blood-Brain-Barrier, as found [1]: not to breach the Blood-Brain-Barrier
CN(C)Cc1nnc2n1-c1ccc(Cl)cc1C(c1ccccc1)=NC2 [adinazolam] |  |  |  | bioavailability, experimentally observed [2]: low; half lives, experimentally observed [2]: short
Cc1c(C)c2c(c(C)c1O)CCC(C)(COc1ccc(CC3SC(=O)NC3=O)cc1)O2 (stereo not drawn) [troglitazone] |  |  |  | inhibition of CYP 3A4 (CYP 3A4): time and NADPH-dependent inhibition
CC[C@H]1OC(=O)[C@H](C)[C@@H](O[C@H]2C[C@@](C)(OC)[C@@H](O)[C@H](C)O2)[C@H](C)[C@@H](O[C@@H]2O[C@H](C)C[C@H](N(C)C)[C@H]2O)[C@](C)(OC)C[C@@H](C)C(=O)[C@H](C)[C@@H](O)[C@]1(C)O [clarithromycin] | 1 | 1 |  | 
CC(=O)CC(c1ccccc1)c1c(O)c2ccccc2oc1=O (stereo not drawn) [warfarin] | 12 | 2 |  | 
CNCCCN1c2ccccc2CCc2ccccc21 [desipramine] | 4 | 1 |  | 
C=CC[C@@H]1/C=C(\C)C[C@H](C)C[C@H](OC)[C@H]2O[C@@](O)(C(=O)C(=O)N3CCCC[C@H]3C(=O)O[C@H](/C(C)=C/[C@@H]3CC[C@@H](O)[C@H](OC)C3)[C@H](C)[C@@H](O)CC1=O)[C@H](C)C[C@@H]2OC [tacrolimus] | 4 | 3 |  | 
Cc1ccc(-c2nc3ccc(C)cn3c2CC(=O)N(C)C)cc1 [zolpidem] |  | 2 | 2 | 
Cc1nnc2n1-c1ccc(Cl)cc1C(c1ccccc1)=NC2 [alprazolam] |  | 3 | 15 | 
O=C(O)C1N=C(c2ccccc2)c2cc(Cl)ccc2NC1=O (stereo not drawn) [clorazepate] |  | 3 | 7 | 
CN(C)CCCN1c2ccccc2CCc2ccc(Cl)cc21 [clomipramine] | 5 | 11 |  | 
CNC1=Nc2ccc(Cl)cc2C(c2ccccc2)=[N+]([O-])C1 [chlordiazepoxide] |  | 3 | 7 | 
NC(=O)N1c2ccccc2C=Cc2ccccc21 [carbamazepine] | 3 | 9 |  | 
O=C1CN=C(c2ccccc2Cl)c2cc([N+](=O)[O-])ccc2N1 [clonazepam] |  | 3 | 10 | 
COC(=O)C1=C(C)NC(C)=C(C(=O)OCC(C)C)C1c1ccccc1[N+](=O)[O-] (stereo not drawn) [nisoldipine] | 3 | 4 |  | 
CNCCC=C1c2ccccc2CCc2ccccc21 [nortriptyline] | 4 | 11 |  | 
Cc1ncc2n1-c1ccc(Cl)cc1C(c1ccccc1F)=NC2 [midazolam] |  | 3 | 15 | bioavailability, experimentally observed [2]: low; half lives, experimentally observed [2]: short
Clc1ccc2c(c1)C(c1ccccc1)=NCc1nncn1-2 [estazolam] |  | 3 | 7 | 
CN(C)CCCN1c2ccccc2CCc2ccccc21 [imipramine] | 5 | 11 |  | 
C[C@]12CCC(=O)C=C1CC[C@@H]1[C@@H]2[C@@H](O)C[C@@]2(C)[C@H]1CC[C@]2(O)C(=O)CO [hydrocortisone] | 1 | 14 |  | 
O=C1CN=C(c2ccccc2)c2cc(Cl)ccc2N1CC(F)(F)F [halazepam] |  | 3 | 7 | 
